Measurements as given in patent US12085575B2, “Compositions and methods for detecting proteinopathies” (BOARD OF SUPERVISORS OF LOUISIANA STATE UNIVERSITY AND …, priority 2011, dated 2024).
Residues, ends and D or L forms follow the SMILES beside them. *: point of attachment. Cbz = O=C(OCc1ccccc1)*

How the values were obtained:
p53 = p53 turnover with CHX with or without MG132; type: cell-based, human; details: ATM+ cells, MG132 10 μM, CHX 10 μg/ml, 6 hours
Procedure: Both p53 and STAT3 are known targets of the ubiquitin/26S proteasome pathway. To determine whether steady state level of these proteins is regulated by ATM, turnover of both p53 and STAT3 were measured. In FIG. 2C, FT169A (A-T) and FT169A (ATM+) cells were treated with the protein synthesis inhibitor CHX (10 μg/ml) in the presence (lanes 3 and 6) or absence (lanes 2 and 5) of the proteasome inhibitor MG132 (10 μM) for 6 hours. Cell lysates were analyzed by immunoblotting using an anti-p53 antibody (upper row). The intensity of the p53 bands was measured using a Kodak Image station 2000R […]. Results are shown in the bar graph (right panel). The filter used for immunoblotting was stained with Ponceau S to assure equal protein loading (lower row). […] By contrast, p53 protein was rapidly degraded within 6 hours of CHX treatment in FT169A (ATM+) cells (FIG. 2C, lanes 4 and 5, and bar graph for p53 band quantization).

[1] = tested on: polyubiquitylated proteins; assay: UV-induced degradation of polyubiquitylated proteins in organotypic cerebellar brain slices; type: cell-based, mice; details: Bafilomycin A1 18 hrs, UV 150 mJ
Procedure: Experiments were conducted to determine if UV would induce degradation of the ubiquitin-conjugated cellular proteins in A-T organotypic brain slices grown in culture, similar to the findings described herein for A-T cells (See FIGS. 8A-8B). Two-month-old mice were used irrespective of the gender. Cerebellar organotypic brain slices (400 μm thick) from three mice were obtained using a McIlwain tissue chopper (The Mickle Lab Eng. Co. Ltd). Slices from two A-T mice and three ATM+/− mice were pooled and randomly placed on Millicell culture plate inserts (Millipore, MA). Brain slices were then incubated for 1 day in OptiMem-based medium at 37° C. in a humidified atmosphere of 5% CO2 and 95% air. One day later, slices were treated with Bafilomycin A1 for 18 hrs. Slices were then exposed to UV (150 mJ)) or left untreated. After three hours, tissue lysates were prepared as described herein. Lysates were then analyzed by Western analysis using anti-ubiquitin antibody as described herein, and the results shown in FIG. 17A. Intensity of the total polyubiquitylated proteins and free ubiquitin was quantitated using BioRad Quantity One software. All control values (−UV and +Bafl) were normalized to 100%, and values for experimental treatments were expressed as percent variations over control to give the results shown in FIG. 17B. […]

Row | Compound | turnover of p53 in the presence of CHX (p53) | UV-mediated degradation of polyubiquitylated proteins ([1]; A-T brain slices) | UV-induced degradation of polyubiquitylated proteins ([1]; ATM+/− brain slices)
1 | CC(C)C[C@@H](C=O)NC(=O)[C@H](CC(C)C)NC(=O)[C@H](CC(C)C)NC(=O)OCc1ccccc1 [MG132] (Cbz-Leu-Leu-Leu-aldehyde) | blocked |  | 
2 | CO/C1=C\C(C)=C\[C@@H](C)[C@@H](O)[C@@H](C)C/C(C)=C/C=C/[C@H](OC)[C@@H]([C@@H](C)[C@@H](O)[C@H](C)[C@@]2(O)C[C@@H](O)[C@H](C)[C@@H](C(C)C)O2)OC1=O [Bafilomycin A1] |  | failed to protect | markedly protected
